For 17 compounds, EC50 and Activity results are on record in ChEMBL document CHEMBL6109132, “Potent and Selective Human Constitutive Androstane Receptor Activator DL5055 Facilitates Cyclophosphamide-Based Chemotherapies” (J Med Chem, 2025).

pEC50: −log10 of the molar value. Bounds are passed on as bounds.

For data set [1], the target named is T1, Nuclear receptor subfamily 1 group I member 3 (Homo sapiens, UniProt Q14994).
T1 sequence (Q14994 whole entry): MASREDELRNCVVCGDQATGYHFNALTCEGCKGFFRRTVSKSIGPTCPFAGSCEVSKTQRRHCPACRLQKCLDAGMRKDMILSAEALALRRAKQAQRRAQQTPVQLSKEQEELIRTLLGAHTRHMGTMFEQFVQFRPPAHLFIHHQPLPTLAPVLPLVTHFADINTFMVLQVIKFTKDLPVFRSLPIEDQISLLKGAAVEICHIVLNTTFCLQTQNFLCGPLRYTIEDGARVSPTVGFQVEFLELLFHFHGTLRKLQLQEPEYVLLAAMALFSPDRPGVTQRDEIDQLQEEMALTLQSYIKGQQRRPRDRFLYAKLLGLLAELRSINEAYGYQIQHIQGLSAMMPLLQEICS
The data set is described as follows: Agonist activity at human CAR expressed in human HepG2 cells co-expressing CYP2B6 incubated for 23 hrs by Luciferase reporter gene assay. In kind it is cell-based. For orientation: Reporter assays use an easily measured gene product as a stand-in for the process of interest.

Data set [2] deals with T2, Nuclear receptor subfamily 1 group I member 2 (Homo sapiens, UniProt O75469).
T2 sequence (O75469 whole entry): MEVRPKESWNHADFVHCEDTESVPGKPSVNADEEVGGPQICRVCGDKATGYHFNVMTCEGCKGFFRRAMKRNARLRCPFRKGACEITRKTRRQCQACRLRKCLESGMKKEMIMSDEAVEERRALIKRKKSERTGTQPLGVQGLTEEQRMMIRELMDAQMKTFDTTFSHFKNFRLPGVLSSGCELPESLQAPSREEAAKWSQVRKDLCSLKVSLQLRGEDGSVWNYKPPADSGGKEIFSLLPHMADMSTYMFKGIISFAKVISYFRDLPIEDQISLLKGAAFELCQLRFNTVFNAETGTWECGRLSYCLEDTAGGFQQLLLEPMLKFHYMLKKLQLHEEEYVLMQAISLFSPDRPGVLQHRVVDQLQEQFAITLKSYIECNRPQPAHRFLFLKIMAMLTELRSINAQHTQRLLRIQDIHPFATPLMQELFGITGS
The data set is described as follows: Activation of human PXR expressed in human HepG2 cells assessed as increase in CYP3A4 mRNA level at >1 uM incubated for 24 hrs by luciferase based analysis. In kind it is cell-based. As to conditions: hepg2, 24 h; call rule not given here.

Usually pEC50 stands for −log10 of the EC50, conventionally taken in molar units. A low value points to a large EC50. As to `c1ccc2c(c1)CC(NCc1c(-c3ccc4ccccc4c3)nc3occn13)C2`, the negative logarithm of the EC50 (pEC50) in data set [1] is 6.17. In addition, the outcome in data set [2] was Active.
In the case of `Clc1ccc(-c2nc3sccn3c2/C=N/OCc2ccc(Cl)c(Cl)c2)cc1`, in data set [2], the outcome was Active.
Turning to `O=C(N[C@H]1C[C@H](c2ccccc2)C1)c1c(-c2ccc3ccccc3c2)nc2occn12`, the pEC50 in data set [1] was 5.96.
The same measure, in the same setting: next, `O=C(NCCc1ccc(Br)cc1)c1c(-c2ccc3ccccc3c2)nc2occn12`: 5.46; `O=C(NC1Cc2ccccc2C1)c1c(-c2ccc(F)cc2F)nc2occn12`: 6.36.
The same measure, in the same setting: next, `O=C(NC1Cc2ccccc2C1)c1c(CCc2ccccc2)nc2occn12`: below 4.00; `O=C(NC1Cc2ccccc2C1)c1c(-c2ccc3c(c2)OCCO3)nc2occn12`: 6.12.
Compound `O=C(Nc1c(-c2ccc3ccccc3c2)nc2occn12)C1Cc2ccccc2C1` had a pEC50 in data set [1] of 5.92. Compared with the last compound, the pEC50 is 0.20 log units lower.
Same read-out and setting: then `Cc1ccccc1CCNC(=O)c1c(-c2ccc3ccccc3c2)nc2occn12`, with 6.08; and `O=C(OC1Cc2ccccc2C1)c1c(-c2ccc3ccccc3c2)nc2occn12`, with 6.42.
With `O=C(NC1Cc2ccccc2C1)c1c(-c2ccc(F)c(C(F)(F)F)c2)nc2occn12`, in data set [1], the pEC50 was 4.74.
On the same count and under the same terms, next, `O=C(N[C@H]1C[C@@H](c2ccccc2)C1)c1c(-c2ccc3ccccc3c2)nc2occn12`: 6.48.
Same read-out and setting: then `O=C(NOCc1ccccc1)c1c(-c2ccc3ccccc3c2)nc2occn12`, with 5.36; and `O=C(NOCc1ccc(Cl)c(Cl)c1)c1c(-c2ccc3ccccc3c2)nc2occn12`, with 6.46; and `O=C(NCC1Cc2ccccc2C1)c1c(-c2ccc(F)cc2F)nc2occn12`, with 5.72.
The same measure, in the same setting: next, `O=C(NCC1Cc2ccccc2C1)c1c(-c2ccc3ccccc3c2)nc2occn12`: 6.68; `O=C(NC1Cc2ccccc2C1)c1c(-c2ccc(Cl)cc2)nc2occn12`: 6.42.
